Here are results for 1 compound from patent US20230372282A1, “METHOD FOR TREATEING OR […] OPTIC NEUROPATHY” (TZU CHI UNIVERSITY, priority 2022, published 2023).

One assay relates to ED1+ macrophages. As to the kind of experiment: Immunohistochemistry of ED1+ macrophage infiltration in the optic nerve. It is filed as in vivo, rat. Particulars: rAION rats, BP 10 mg/kg i.p. 7 days; PBS group 166.4±19.3, sham 8.7±4.8. Here is the method:
(§1) Adult male Wistar rats of 4 to 6 weeks of age (weighing 100-125 g) were used in the animal model of ischemic optic neuropathy and were divided into three groups: the sham group, the group administered with PBS following ischemic optic neuropathy injury, and the group with ischemic optic neuropathy injury accompanied by intraperitoneal injection of BP at 10 mg/kg for 7 consecutive days. The rats were housed in an animal room having a 12-hour light/dark cycle (the light cycle time is from 7 a.m. to 7 p.m.) with temperature controlled at 23° C. and humidity controlled at 55%, and supplied with filtered sterilized water and general rodent feed. During the experiment, general anesthesia of rats was performed by intramuscular injection of ketamine at 100 mg/kg and xylazine at 10 mg/kg. […]
(§2) First, vertical-sections of the ON were blocked with 2% bovine serum albumin (BSA) containing 0.3% triton X-100 for 1 hour. […] Fluorescence photographs of the sections of the ON tissue were taken at 10× magnification and 20× magnification using the Zeiss LSM 900 confocal system. The 20× magnified image of ED1^+ cells was analyzed using ImageJ software for quantification of exogenous macrophages. […]

The test system of a further assay is RGC layer. Briefly: TUNEL assay of apoptotic cells in the RGC layer. It is filed as in vivo, rat. To be noted: rAION rats, BP 10 mg/kg i.p. 7 days; PBS group 11.2±2.8, sham 2.8±1.9. Here is the method: as §1, with “mg/kg. Local anesthesia was performed by using 0.5% Alcaine, and mydriasis was performed by administering Mydrin-P. To sacrifice the rats, carbon dioxide at a filling rate of 5 L/min was injected so that the volume of carbon dioxide was 20% of that of the cage, thereby achieving the main goal of reducing animal suffering.” for “mg/kg.”
Apoptotic cells in the ganglion cell layer (GCL) were detected using TUNEL assay according to the manufacturer's protocol. TUNEL-positive cells were calculated manually based on at least 6 retinal sections per eyeball in three groups (n=6 for each group). […]

Assay [1] relates to retinal ganglion cells (RGCs). Briefly: Retrograde labeling of RGCs with FluoroGold: RGC density and survival after AION induction. It is filed as in vivo, rat. Here is the method: (§3) Adult male Wistar rats of 4 to 6 weeks of age (weighing 100-125 g) were used in the animal model of ischemic optic neuropathy and were divided into three groups: the sham group, the group administered with PBS following ischemic optic neuropathy injury, and the group with ischemic optic neuropathy injury accompanied by intraperitoneal injection of BP at 10 mg/kg for 7 consecutive days. The rats were housed in an animal room having a 12-hour light/dark cycle (the light cycle time is from 7 a.m. to 7 p.m.) with temperature controlled at 23° C. and humidity controlled at 55%, and supplied with filtered sterilized water and general rodent feed. During the experiment, general anesthesia of rats was performed by intramuscular injection of ketamine at 100 mg/kg and xylazine at 10 mg/kg. Local anesthesia was performed by using 0.5% Alcaine, and mydriasis was performed by administering Mydrin-P. To sacrifice the rats, carbon dioxide at a filling rate of 5 L/min was injected so that the volume of carbon dioxide was 20% of that of the cage, thereby achieving the main goal of reducing animal suffering.
(§4) Firstly, under local anesthesia, rats were administrated with Alcaine and Mydrin-P eye drops to induce mydriasis. Subsequently, the rats were intravenously injected with rose bengal (2.5 mM dissolved in PBS at pH 7.4) at 1 mL/kg, and immediately irradiated with 12 pulses (once per second) of argon green laser (wavelength: 532 nm, size: […], power: 80 mW) to excite various parts of the optic disc. In addition, the laser was focused on the optic disc by an ophthalmoscope. Then, Tobradex eye ointment was applied evenly to the rats' eyes. Finally, the physical health of the rats was taken care of daily until the end of the study.
Retrograde labeling was performed three weeks after the rats were AION induced. […] One week after labeling, the rats were sacrificed and the eyeballs were carefully removed from the […] and fixed in 10% formalin for 2 hours. The entire retina was placed flat on a slide and paired with a filter set (excitation filter: 350-400 nm; radiation filter: 515 nm) and observed for morphology under a fluorescence microscope. The region with a radius of 1 mm from the center of the retina is defined as the central region, and the region with a radius of 3 mm from the center is defined as the mid-peripheral region. Ten blocks (38,250 μm^2; 225 μm×170 μm) were randomly selected from the central region and the mid-peripheral region to estimate the density of RGCs to determine the survival rate of RGCs.
To investigate the effect of BP on RGC survival rates after AION induction, retrograde labeling was carried out using Fluorogold (FG). […]

In another assay the test system is NF-κB signaling pathway. Briefly: Western blotting of retinal protein, NF-κB-related pathway. It is filed as in vivo. Particulars: rat retina, rAION, compared with AION+PBS group. Here is the method: as §3, §4
The detailed process of Western blotting process was described in the inventors' previous articles Cell Death Dis. 2017, 8, e3172 and Nat. Med. 2015, 21, 677-687. The total protein of the rat retina was extracted with modified radio immunoprecipitation assay (RIPA) buffer, and the protein concentrations were analyzed using the bicinchoninic acid (BCA) protein assay kit. […] The protein signal on the membrane was detected using an enhanced chemiluminescence (ECL) kit. The signal strength of the bands was quantified using ImageJ software.
Previous studies have pointed out that the upregulation of reactive oxygen species (ROS) in ischemic injury induces inflammatory response through the IκBα-NF-κB signaling pathway. Here, protein expression of the NF-κB-related pathway was evaluated to investigate the molecular mechanisms involved in the protection of nerves by administration of BP. […]
A general note: A western blot detects proteins with antibodies after separation by electrophoresis.

Assay [2] concerns rAION model. As to the kind of experiment: Optical coherence tomography (OCT) imaging of optic nerve width and RNFL after AION induction. Particulars: BP 10 mg/kg i.p. The assay is classed as in vivo, rat. Here is the method: as §3, §4
On days 1, 3, 7, 14, and 28 after AION induction, the optic nerve width (ONW) and the coherence tomography image of the retinal nerve fiber layer (RNFL) were obtained using a Micron IV retinal microscope. The vertical resolution and horizontal resolution of the imaging system were set to be 1.8 μm and 3 μm, respectively, to provide a 3.2 mm field of view and 1.2 mm depth of field for the retina. The cornea was moistened with Methocel 2%. The Micron eyepiece was glued to be in direct contact with the eye. To allow vertical light penetration through the cornea, the retinal nerve fiber layer and the Bruch's membrane opening (ONW) were imaged with circular and linear scans, respectively, with an average of 50 frames per scan.
The optic nerve width (ONW) and retinal nerve fiber layer (RNFL) thickness were measured on days 1, 3, 7, 14, and 28 using optical coherence tomography (OCT) imaging in the sham group, PBS-treated group, and BP-treated group. As shown in FIG. 5A and FIG. 5B, after AION induction, optic disc swelling can clearly observed in the acute onset stage, and it was improved by administration of BP on days 3, 7 and 28 (311.95±23.21 μm vs. 469.58±29.35 μm, 259.35±33.73 μm vs. 329±25.73 μm, 273.71±23.22 μm vs. 300.73±26.41 μm, respectively). Compared with the PBS-treated group, BP was efficient in maintaining the area of the RNFL (0.089±0.0027 mm^2 vs. 0.08±0.0028 mm^2, 0.074±0.0089 mm^2 vs. 0.047±0.0042 mm^2 respectively) on days 14 and 28.

In assay [3] the test system is rAION model. As to the kind of experiment: Flash visual evoked potential (FVEP), P1-N2 amplitude after AION induction. It is filed as in vivo, rat. To be noted: 28 days after AION induction, BP 10 mg/kg i.p. 7 days; PBS group 13.70±5.59, sham 33.63±8.30. Here is the method:
as §1
Twenty-eight days after AION induction, electrodes were implanted into the primary visual cortex (anteroposterior: −8 mm; dorsoventral: ±3 mm) and frontal cortex (anteroposterior: +1 mm), while a ground electrode was implanted in the tail. […] The general visual function was evaluated by P1-N2 amplitude. […]

In a further assay the test system is CNPase. As to the kind of experiment: Immunohistochemistry of CNPase in the optic nerve (myelin integrity). It is filed as in vivo, rat. Particulars: rAION rats, BP 10 mg/kg i.p. 7 days; after AION induction 4.24±0.71, sham 11.06±2.60. Here is the method: as §1, §2
The mark [4] stands for this setting: rodent model of NAION, BP 10 mg/kg i.p. 7 days.

The structures appear in SMILES notation.

Consider `CCC/C=C1\OC(=O)c2ccccc21` [BP, n-butylidenephthalide], for which the “ED1-positive cells in the optic nerve per high powered field” value in the assay with ED1+ macrophages worked out at 80.1±28.9. Further, the “TUNEL-positive cells in the RGC layer per high powered field (HPF)” value in the assay on RGC layer is listed as 3.7±1.5. Besides, in assay [1] (rAION Wistar rats, BP 10 mg/kg intraperitoneal for 7 consecutive days, FluoroGold labeling 3 weeks after induction, sacrifice 1 week later, PBS group 935±514, sham 2771±453), the “density of RGCs in the central retina” value worked out at 2172±458 RGCs per mm^2. Moreover, the “density of RGCs in the mid-peripheral retina” value in assay [1] (rAION Wistar rats, BP 10 mg/kg intraperitoneal for 7 consecutive days, PBS group 750±452, sham 2236±487) turned out to be 1962±505 RGCs per mm^2. In assay [1] (setting [4]), the “improvement of RGC survival rate in the central retina” value was 44.7% and the “improvement of RGC survival rate in the mid-peripheral retina” value is given as 54.2%. Moreover, in the assay with NF-κB signaling pathway, the “expression of IL-1β” value is on record as “reduced expression”, the “expression of NLRP3” value is recorded as “reduced expression”, the “phosphorylation of IκBα (phospho-IκBα expression level)” value is “significantly inhibited phosphorylation” and the “phosphorylation of NF-κB (phospho-NF-κB expression level)” value is “significantly inhibited phosphorylation”. For the same compound, the “optic nerve width (ONW)” value in the assay with rAION model [2] (day 3 after AION induction, vs. 469.58±29.35 PBS group) is listed as 311.95±23.21 μm. Also, in the assay with rAION model [2] (day 7 after AION induction, vs. 329±25.73 PBS group), the “optic nerve width (ONW)” value was 259.35±33.73 μm. Also, the “area of the RNFL” value with rAION model [2] (day 14 after AION induction, vs. 0.08±0.0028 PBS group) is listed as 0.089±0.0027 mm^2. Besides, in the assay with rAION model [2] (day 28 after AION induction, vs. 0.047±0.0042 PBS group), the “area of the RNFL” value is on record as 0.074±0.0089 mm^2. In the assay with rAION model [2] (day 28 after AION induction, vs. 300.73±26.41 PBS group), the “optic nerve width (ONW)” value amounted to 273.71±23.22 μm. The “FVEP P1 to N2 amplitude” value in the assay with rAION model [3] was determined as 22.01±7.03 μV. For the same compound, the “expression of CNPase in the optic nerve (IHC signal)” value with CNPase was determined as 7.20±1.22.
